Experimental data as given in patent US9241888B2, “Pharmaceutical or cosmetic composition for treating alopecia” (GIULIANI S.P.A., priority 2012, dated 2016).

Tests used:
[1] = Reactivity: air oxidation, chemiluminometric determination of N-nitroso derivatives; type: physicochemical; settings: 2 mM aqueous solution diluted with water/ethanol (85/15), exposed to ambient air 72 h
Text: The properties of 1,4-butanediamine,N-(3-aminopropyl)-N^1-methyl (II) and 1,4-butanediamine,N-(3-aminopropyl)-N^1-cyclohexyl (III) after exposure to air were studied by comparison with the corresponding non-substituted derivative, in which the N^1 amine group lacking the R substituent becomes a secondary amine group, namely 1,4-butanediamine,N-(3-aminopropyl). Since one of the common products of oxidation of the secondary amino group takes the form of the N-nitroso derivatives which are formed by reaction with the nitrogen oxides present in the air, the nitrosated derivatives which were formed upon leaving a solution of the test compounds in contact with the ambient air were determined as a parameter of reactivity.
The instrumentation used consisted of a stage on which both the analysis of the nitrite ions and the analysis of the N-nitrosamines were carried out, the latter under strong denitrosating conditions. The nitrogen oxide which developed in accordance with the amount of nitrite ions and that which developed in accordance with the quantity of nitroso groups were evaluated by way of a chemiluminometric detector.
The content of NO^2− ions was analysed using a reducing mixture of acetic acid/potassium iodide (5 ml/1 ml of 5% H2O soln.) at a temperature of 0-4° C. The nitroso groups were analysed using a denitrosating mixture of acetic acid/hydrobromic acid (5 ml/1 ml) at a temperature of 70° C.
The method for determining air oxidation of the compound was as follows.
a) a 2 mM solution of the test substance in purified water was doubly seeded, at an amount equal to 500 μl in appropriate wells of six-well plates of inert plastics material (polystyrene);
b) the solution in each well was diluted with 500 μl of a mixture of purified water and ethanol (85/15) free from contamination. This promotes the dispersion of the liquid film on the surface of the well;
c) the plate prepared in this manner is exposed to ambient air for 72 h
d) at the end of the exposure time, the residue in the well is eluted with 1 ml of purified water and then used for the chemiluminometric analysis.

[2] = test system: hair follicles (HF) in anagen VI phase from human scalp skin; experiment: Anagen and catagen phases in the ex vivo hair follicle model; type: cell-based
Procedure: The organ culture of hair follicles (HF) in anagen VI phase involved microdissection of HF from the skin of the human scalp (temporo-frontal area) after informed consent from the subjects who were undergoing surgery (face lifts), in accordance with the Helsinki Declaration and with the approval of the Ethics Committee of the University of Lübeck. […] For immunohistochemical studies, the isolated follicles were cultured for 6 consecutive days. Spermidine, N-methylspermidine and the vehicle (distilled water) were administered once for each change of culture medium (every 48 hours), at a concentration of 0.5 μM. The following results for the anagen and catagen phases, summarised in the graphs of FIGS. 5 and 6, were also obtained from the same ex vivo model of hair follicles (HF) described for the previous test of elongation of the hair shaft.

NCTC2544 cells = experiment: Antioxidant test: production of reactive oxygen species (ROS), DCFH-DA spectrofluorometry; type: cell-based, human; settings: for Concentration of ROS products compared to control cells treated with H2O2: 1.5 h, α-tocopherol 250 μg/ml, spermidine and N-methylspermidine 1 nM-1 mM
Procedure: The production of reactive oxygen species (ROS) was monitored by spectrofluorometry using 2′,7′-dichlorofluorescein diacetate (DCFH-DA) as described by Tobi et al. (Tobi S E, Paul N, T McMillan J. J Photochem. Photobiol, B 2000: 57: 102-112).
The aforementioned NCTC2544 cells (˜80% confluence) were detached with trypsin/EDTA and seeded at a density of 5×10^4 cells per well, in 96-well plates. Subsequently, the cells were treated with the N-methylspermidine according to the invention and spermidine. The following concentrations of N-methylspermidine and spermidine were tested: 1 nM, 500 nM, 1 μM, 500 μM, 1 mM (final concentration in the culture medium).
α-tocopherol (250 μg/ml) was used as a comparison. The plates were incubated at 37° C., in 5% CO2, for 1.5 h. The cells grown on basal medium with 10% FBS were used as a control.

[3] = test system: hair follicles (HF) in anagen VI phase from human scalp skin; experiment: Hair shaft elongation test, ex vivo organ culture of hair follicles; type: cell-based; settings: 0.5 μM, day 6; for Elongation of the hair shaft with respect to the vehicle: every 48 hours
Procedure: The activity of N-methylspermidine was tested in an ex vivo model which made it possible to measure the effect on the elongation of the hair shaft. The organ culture of hair follicles (HF) in anagen VI phase involved microdissection of HF from the skin of the human scalp (temporo-frontal area) after informed consent from the subjects who were undergoing surgery (face lifts), in accordance with the Helsinki Declaration and with the approval of the Ethics Committee of the University of Lübeck. […] For immunohistochemical studies, the isolated follicles were cultured for 6 consecutive days. Spermidine, N-methylspermidine and the vehicle (distilled water) were administered once for each change of culture medium (every 48 hours), at a concentration of 0.5 μM. The measurements of the shaft elongation after the treatment with vehicle, spermidine and N-methylspermidine were taken on days 0, 1, 4 and 6, using a Zeiss inverted binocular microscope with one eyepiece containing a reticle (Carl Zeiss, Oberkochen, Germany).

[4] = test system: NCTC2544 human keratinocytes; experiment: MTT Assay (cell viability / cytotoxicity); type: cell-based; settings: 1 nM, 500 nM, 24 or 48 hours exposure
Text: MTT Assay is a test used for analysing cell viability (Mosmann, 1983). It is a colorimetric test based on the use of the tetrazolium salt MTT, which measures cell viability which can then be quantified by a microplate spectrophotometric reader. MTT (3-(4,5-dimethylthiazol-2-yl)-2,5-diphenyltetrazolium bromide, a tetrazole), a yellow compound, is reduced to formazan, a purple substance, in cellular mitochondria. The absorbance of this coloured solution can be quantified by measuring it at a given wavelength (570 nm) using a spectrophotometer. The maximum absorbance will depend on the solvent used. This reduction only takes place when the mitochondrial reductase enzymes are active, and the conversion to formazan can therefore be related directly to the number of viable cells. When the amount of formazan produced by cells treated with a substance is compared with the amount produced by untreated control cells, it is possible to deduce the efficacy of the tested substance in causing cell death by producing a dose-response curve. The solutions of MTT solubilised in PBS or cell culture medium, without phenol red, are of a yellowish colour. […] The resulting purple solution is analysed by spectrophotometry. An increase in the number of cells will result in an increase in the formazan obtained and in an increase in absorbance. […]

Compound | Nitroso derivatives after 72 h exposure [1] | Effect of prolonging the anagen phase, compared with spermidine ([2]; 0.5 μM each, 6 days) | Number of hairs entering the catagen phase, compared with spermidine ([2]; 0.5 μM each, 6 days) | Follicles entering catagen spontaneously ([2]; 0.5 μM, after 6 days of treatment, vehicle more than 60%) | Percentage of hair follicles in the anagen phase ([2]; 0.5 μM, after 6 days of treatment, versus vehicle) | Concentration of ROS products compared to control cells treated with H2O2 (NCTC2544 cells) | Antioxidant activity compared with that of spermidine (NCTC2544 cells; comparison with spermidine) | Elongation of the hair shaft with respect to the vehicle [3] | Difference in hair shaft elongation between spermidine and N-methylspermidine [3] | Cytotoxic effects / cell viability in percent against the control [4]
NCCCCN(CCCN)C1CCCCC1 [N-(3-aminopropyl)-N^1-cyclohexyl-1,4-butanediamine] | absent |  |  |  |  |  |  |  |  | 
CNCCCCNCCCN [N-methylspermidine, N-(3-aminopropyl)-N′-methyl-1,4-butanediamine] | absent | greater effect of prolonging the anagen phase | significantly lower | ~30% | significant increase | decrease in the concentration of ROS products | no significant difference | improve the elongation of the hair shaft significantly | not statistically significant | 
NCCCCNCCCN [spermidine, N′-(3-aminopropyl)-1,4-diaminobutane, reference compound] | 2.3 ppm |  |  |  |  | decrease in the concentration of ROS products |  | improve the elongation of the hair shaft significantly |  | no cytotoxic effects
Cc1c(C)c2c(c(C)c1O)CC[C@@](C)(CCC[C@H](C)CCC[C@H](C)CCCC(C)C)O2 [α-tocopherol, reference compound] |  |  |  |  |  | decrease in the concentration of ROS products |  |  |  | 
